{"source": "patent US20250222011A1", "about": "“DRUG TARGET FOR INHIBITING TUMOR, USE, AND ORAL DRUG” (CHI BIOTECH CO., LTD., priority 2024, published 2025)", "key": {"[1]": {"tested_on": "phosphorylated EIF2S1", "experiment": "Western blotting detection of EIF2A phosphorylation", "type": "cell-based", "conditions": "1 mM of ATCA for 48 h, FIG. 3", "procedure": "Western Blotting method: the sample and molecular weight standard of pre-stained protein were loaded onto an SDS-PAGE gel (10 cm×10 cm) to allow electrophoresis at 100 V for 40 min. After treating for 1 h at 100 V, 230 mA, the protein in SDS-PAGE was transferred to a nitrocellulose membrane. After transfer, the nitrocellulose membrane was washed with 25 mL of TBS for 5 min at room temperature. The nitrocellulose membrane was placed in 25 mL of blocking buffer (TBST, 5% skim milk) and incubated at room temperature for 1 h. The membrane was washed three times with 15 mL TBST, 5 min each time. The membrane and phosphorylated EIF2S1 primary antibody (diluted at 1:1500) were placed in 10 mL of a primary antibody dilution buffer and incubated overnight at 4° C. with gentle shaking at certain intervals. The membrane was washed three times with 15 mL TBST, 5 min each time. A rabbit secondary antibody was prepared with 5% skim milk at a ratio of 1:2000 and incubated at room temperature for 1.5 h. The membrane was washed three times with 15 mL TBST, 5 min each time. The membrane was incubated with 10 mL of LumiGLO® (0.5 mL 20× LumiGLO®, 0.5 mL 20× peroxide, and 9.0 mL purified water) at room temperature for 1 min with gentle agitation at certain intervals. The excess developer on the membrane was drained (no drying), wrapped in plastic film, and then developed with a BIO-RAD developer."}, "[2]": {"tested_on": "HER2", "experiment": "Western blotting of HER2 expression after ATCA treatment", "type": "cell-based", "conditions": "FIG. 4"}, "[3]": {"biological_target": "T1, Vinculin (Homo sapiens, UniProt P18206)", "T1 construct": "endogenous in cells; host or cells: H1299", "T1 sequence (P18206 1-1066 isoform P18206-2)": "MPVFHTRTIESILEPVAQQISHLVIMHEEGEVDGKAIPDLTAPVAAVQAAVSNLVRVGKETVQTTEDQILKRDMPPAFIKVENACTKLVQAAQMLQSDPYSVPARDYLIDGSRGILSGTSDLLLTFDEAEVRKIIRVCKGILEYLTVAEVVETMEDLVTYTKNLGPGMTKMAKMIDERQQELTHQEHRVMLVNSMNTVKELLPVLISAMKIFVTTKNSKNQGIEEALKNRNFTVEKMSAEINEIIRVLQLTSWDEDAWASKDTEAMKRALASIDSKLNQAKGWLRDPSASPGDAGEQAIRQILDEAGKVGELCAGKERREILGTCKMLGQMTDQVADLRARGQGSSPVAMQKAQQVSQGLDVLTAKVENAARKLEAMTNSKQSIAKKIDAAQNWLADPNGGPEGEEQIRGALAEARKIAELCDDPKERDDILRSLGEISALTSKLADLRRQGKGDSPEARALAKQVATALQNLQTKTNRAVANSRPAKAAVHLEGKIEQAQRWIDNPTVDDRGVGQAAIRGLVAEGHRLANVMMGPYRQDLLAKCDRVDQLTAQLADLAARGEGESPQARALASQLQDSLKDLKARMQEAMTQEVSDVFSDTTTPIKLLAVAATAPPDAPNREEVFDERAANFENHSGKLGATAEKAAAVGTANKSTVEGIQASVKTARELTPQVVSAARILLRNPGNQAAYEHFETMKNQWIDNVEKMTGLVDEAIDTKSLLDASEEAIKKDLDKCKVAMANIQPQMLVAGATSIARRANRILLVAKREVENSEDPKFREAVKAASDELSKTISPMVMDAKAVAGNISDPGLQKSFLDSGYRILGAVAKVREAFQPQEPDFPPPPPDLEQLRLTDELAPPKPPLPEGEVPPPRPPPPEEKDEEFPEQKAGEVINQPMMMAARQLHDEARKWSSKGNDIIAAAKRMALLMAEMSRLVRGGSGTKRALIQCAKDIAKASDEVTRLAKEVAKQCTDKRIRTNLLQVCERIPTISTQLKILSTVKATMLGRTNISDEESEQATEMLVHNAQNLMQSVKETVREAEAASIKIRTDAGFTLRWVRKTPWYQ", "experiment": "CESTA-WB (cellular thermal shift assay-Western blotting), H1299 cell lysate", "type": "binding", "conditions": "ATCA 10 nM to 10 mM, 55° C. for 3 min, FIG. 1", "procedure": "(§1) CESTA-WB experiment: H1299 cells were plated and cultured in a 15 cm dish, and when a cell density reached about 90% to 100%, the medium was aspirated; the cells were washed twice with PBS, and 2 mL of Lysis Buffer (RB Buffer, 10% N-Dodecyl-β-D-maltoside, and 1× protease inhibitor) was added to each dish and placed flatly on ice to allow lysis for 30 min, and a cell lysate was collected and centrifuged at 17,000 g, 4° C. for 10 min; a resulting supernatant was quantified using a BCA kit. 45 μL of a whole protein was added in a PCR tube, ATCA was added to final concentrations of 10 mM, 1 mM, 100 μM, 10 μM, 1 μM, 100 nM, and 10 nM, respectively, and allowed to stand at 25° C. for 30 min to allow the ATCA to fully interact with the whole protein; while another two tubes without ATCA were taken as controls. The experimental group was treated at 55° C. for 3 min, while one tube in the control group was treated at 37° C. for 3 min, and the other tube was treated at 50° C. for 3 min; centrifugation was conducted at 17,000×g for 10 min at 4° C. to remove denatured proteins. The supernatant was transferred into a new PCR tube, and 5 μg of the supernatant was added into 5×SDS Loading Buffer to allow denaturation in a 100° C. water bath; the Western Blotting was conducted to quantify EEF2, EIF2S1, B-actin, and Vinculin proteins.\n(§2) Western Blotting experiment: the sample and molecular weight standard of pre-stained protein were loaded onto an SDS-PAGE gel (10 cmx 10 cm) to allow electrophoresis at 100 V for 40 min. The proteins in SDS-PAGE were transferred to nitrocellulose membrane at 100 V, 230 mA within 1 h. After transfer, the nitrocellulose membrane was washed with 25 mL of TBS for 5 min at room temperature. The nitrocellulose membrane was placed in 25 mL of blocking buffer (TBST, 5% skim milk) and incubated at room temperature for 1 h. The membrane was washed three times with 15 mL TBST, 5 min each. […]"}, "[4]": {"biological_target": "T2, EEF2 (Homo sapiens, UniProt P13639)", "T2 construct": "a cell lysate was collected and centrifuged at 17,000 g; endogenous in cells; host or cells: H1299", "experiment": "CESTA-WB (cellular thermal shift assay-Western blotting), H1299 cell lysate", "type": "binding", "conditions": "ATCA 10 nM to 10 mM, 55° C. for 3 min, FIG. 1", "procedure": "as §1, §2"}}}
{"smiles": "O=C(O)C1=CC(=C(c2ccc(O)c(C(=O)O)c2)c2ccc(O)c(C(=O)O)c2)C=CC1=O", "note": "[ATCA, aurintricarboxylic acid]", "values": [{"measurement": "EIF2S1 phosphorylation abundance", "setting": "[1]", "result": "did not affect its phosphorylation abundance"}, {"measurement": "HER2 expression", "setting": "[2]", "result": "downregulation"}, {"measurement": "binding to non-target protein Vinculin", "setting": "[3]", "result": "did not bind"}, {"measurement": "binding to non-target protein EEF2", "setting": "[4]", "result": "did not bind"}]}
